From ChEMBL document CHEMBL3871307, “Discovery of Chromane Propionic Acid Analogues as Selective Agonists of GPR120 with in Vivo Activity in Rodents” (ACS Med Chem Lett, 2017)
The source made the active and inactive calls. No cut-off for these calls is given here.

How the values were obtained:
[1] = target: T1, Free fatty acid receptor 4 (Homo sapiens, UniProt Q5NUL3); test: Agonist activity at human GPR120 short isoform expressed in CHOK1 cells assessed as beta-arrestin recruitment after 90 mins by luminescence assay; format: cell-based, CHO-K1
T1 sequence (Q5NUL3 whole entry): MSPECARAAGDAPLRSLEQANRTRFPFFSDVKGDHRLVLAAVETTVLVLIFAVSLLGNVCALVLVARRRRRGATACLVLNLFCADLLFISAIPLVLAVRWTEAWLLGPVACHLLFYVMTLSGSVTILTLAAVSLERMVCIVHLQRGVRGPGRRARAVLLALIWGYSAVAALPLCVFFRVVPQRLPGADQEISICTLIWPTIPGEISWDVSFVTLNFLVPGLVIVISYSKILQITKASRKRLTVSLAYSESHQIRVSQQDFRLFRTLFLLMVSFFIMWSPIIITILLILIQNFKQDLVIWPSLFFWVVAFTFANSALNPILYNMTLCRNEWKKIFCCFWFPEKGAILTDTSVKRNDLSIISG

[2] = target: Free fatty acid receptor 1 (Homo sapiens, UniProt O14842); test: Agonist activity at human GPR40 expressed in HEK293 cells assessed as increase in IP1 accumulation after 60 mins by HTRF assay; format: functional, cell-based
[3] = Terminal half life in rat plasma at 0.1 mg/kg administered as iv casette dose by LC/MS/MS analysis; format: ADME, organism-based; details: read-out: beta t1/2 (converted)
[4] = Protein binding in rat plasma at 0.1 mg/kg administered as iv casette dose by LC/MS/MS analysis; format: ADME, organism-based; details: read-out: PPB (converted)
[5] = Intrinsic clearance in rat plasma at 0.1 mg/kg administered as iv casette dose by LC/MS/MS analysis; format: ADME, organism-based; details: in vivo
[6] = test system: Mus musculus; test: Glucose lowering effect in C57BL/6 transverse aortic constriction mouse assessed as reduction in blood glucose at 3 to 30 mg/kg, po via gavage pretreated for 60 mins followed by dextrose challenge measured up to 120 mins post glucose challenge by OGTT; format: functional, organism-based
[7] = test system: Mus musculus; test: In vivo agonist activity at GPR120 in wild type C57BL/6 transverse aortic constriction mouse assessed as glucose lowering effect at 150 mg/kg, po via gavage pretreated for 60 mins followed by dextrose challenge measured up to 120 mins post glucose challenge by OGTT; format: functional, organism-based
[8] = Plasma concentration in GPR120 knockout C57BL/6 transverse aortic constriction mouse at 150 mg/kg, po measured at 3 hrs; format: ADME, organism-based; details: C57BL/6, mouse
[9] = target: T2, Free fatty acid receptor 4 (Mus musculus, UniProt Q7TMA4); test: Agonist activity at mouse GPR120 expressed in CHOK1 cells assessed as increase in IP1 accumulation after 60 mins by HTRF assay; format: functional, cell-based, CHO-K1
T2 sequence (Q7TMA4 whole entry): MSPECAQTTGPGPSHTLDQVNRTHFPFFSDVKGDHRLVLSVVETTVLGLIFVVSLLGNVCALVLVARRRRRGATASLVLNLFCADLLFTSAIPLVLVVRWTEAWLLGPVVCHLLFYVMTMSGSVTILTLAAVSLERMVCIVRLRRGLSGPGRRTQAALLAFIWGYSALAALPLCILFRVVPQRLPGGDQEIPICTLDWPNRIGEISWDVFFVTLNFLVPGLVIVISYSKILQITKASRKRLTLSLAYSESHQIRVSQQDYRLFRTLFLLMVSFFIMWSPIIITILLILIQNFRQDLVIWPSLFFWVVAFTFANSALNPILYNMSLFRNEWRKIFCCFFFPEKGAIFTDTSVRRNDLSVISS

[10] = target: T2, Free fatty acid receptor 4; test: Agonist activity at mouse GPR120 expressed in human U2OS cells assessed as beta-arrestin recruitment after 90 mins by luminescence assay; format: cell-based
[11] = target: Cytochrome P450 3A4 (Homo sapiens, UniProt P08684); test: Inhibition of human CYP3A4; format: ADME
[12] = target: T3, Peroxisome proliferator-activated receptor delta (Homo sapiens) (UniProt Q03181); test: Activity at PPARdelta (unknown origin)
T3 sequence (whole entry): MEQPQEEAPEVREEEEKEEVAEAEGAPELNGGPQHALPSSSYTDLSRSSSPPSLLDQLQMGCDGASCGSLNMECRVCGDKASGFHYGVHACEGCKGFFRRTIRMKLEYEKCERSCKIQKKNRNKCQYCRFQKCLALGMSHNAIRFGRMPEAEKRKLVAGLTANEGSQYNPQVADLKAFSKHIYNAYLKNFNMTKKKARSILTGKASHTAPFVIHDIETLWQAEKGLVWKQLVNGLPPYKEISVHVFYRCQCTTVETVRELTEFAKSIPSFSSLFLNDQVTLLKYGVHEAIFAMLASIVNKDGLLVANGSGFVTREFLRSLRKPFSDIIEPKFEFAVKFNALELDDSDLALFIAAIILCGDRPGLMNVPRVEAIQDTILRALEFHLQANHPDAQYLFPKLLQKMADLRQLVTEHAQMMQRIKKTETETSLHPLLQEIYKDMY

[13] = AUC in rat plasma at 1 mg/kg, iv by LC/MS/MS analysis; format: ADME, organism-based
[14] = Volume of distribution at steady state in rat plasma at 1 mg/kg, iv or 2 mg/kg, po by LC/MS/MS analysis; format: ADME, organism-based; details: read-out: Vdss
[15] = Terminal half life in rat plasma at 1 mg/kg, iv or 2 mg/kg, po by LC/MS/MS analysis; format: ADME, organism-based; details: read-out: beta t1/2 (converted)
[16] = Mean residence time in rat plasma at 1 mg/kg, iv or 2 mg/kg, po by LC/MS/MS analysis; format: ADME, organism-based
[17] = Oral bioavailability in rat plasma at 2 mg/kg by LC/MS/MS analysis; format: ADME, organism-based
[18] = Protein binding in rat plasma at 1 mg/kg, iv or 2 mg/kg, po by LC/MS/MS analysis; format: ADME, organism-based; details: read-out: PPB (converted)
[19] = AUC in mouse plasma at 2 mg/kg, iv by LC/MS/MS analysis; format: ADME, organism-based
[20] = Clearance in mouse plasma at 2 mg/kg, iv or 30 mg/kg, po by LC/MS/MS analysis; format: ADME, organism-based
[21] = Terminal half life in mouse plasma at 2 mg/kg, iv or 30 mg/kg, po by LC/MS/MS analysis; format: ADME, organism-based; details: read-out: beta t1/2 (converted)
[22] = Protein binding in mouse plasma at 2 mg/kg, iv or 30 mg/kg, po by LC/MS/MS analysis; format: ADME, organism-based; details: read-out: PPB (converted)
[23] = Intrinsic clearance in mouse plasma at 2 mg/kg, iv or 30 mg/kg, po by LC/MS/MS analysis; format: ADME, organism-based; details: in vivo
[24] = AUC in rhesus monkey plasma at 0.5 mg/kg, iv by LC/MS/MS analysis; format: ADME, organism-based, Macaca mulatta
[25] = Terminal half life in rhesus monkey plasma at 0.5 mg/kg, iv or 1 mg/kg, po by LC/MS/MS analysis; format: ADME, organism-based, Macaca mulatta; details: read-out: beta t1/2 (converted)
[26] = Oral bioavailability in rhesus monkey plasma at 1 mg/kg by LC/MS/MS analysis; format: ADME, organism-based, Macaca mulatta
[27] = Protein binding in rhesus monkey plasma at 0.5 mg/kg, iv or 1 mg/kg, po by LC/MS/MS analysis; format: ADME, organism-based, Macaca mulatta; details: read-out: PPB (converted)

Chain of Cytochrome P450 3A4 (P08684 whole entry): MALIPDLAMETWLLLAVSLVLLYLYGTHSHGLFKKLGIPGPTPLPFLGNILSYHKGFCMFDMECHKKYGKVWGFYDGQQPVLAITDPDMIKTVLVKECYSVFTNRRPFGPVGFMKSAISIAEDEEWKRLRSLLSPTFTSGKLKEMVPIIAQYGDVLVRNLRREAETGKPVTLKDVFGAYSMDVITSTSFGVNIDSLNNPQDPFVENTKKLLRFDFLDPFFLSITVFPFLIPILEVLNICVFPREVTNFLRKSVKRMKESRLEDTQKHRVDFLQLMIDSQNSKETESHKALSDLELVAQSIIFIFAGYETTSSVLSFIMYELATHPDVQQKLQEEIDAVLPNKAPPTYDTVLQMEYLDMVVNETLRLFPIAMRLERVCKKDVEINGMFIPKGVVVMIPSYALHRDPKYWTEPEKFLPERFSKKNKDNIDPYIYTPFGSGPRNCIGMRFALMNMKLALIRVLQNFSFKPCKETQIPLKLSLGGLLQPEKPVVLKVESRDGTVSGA
Chain of Free fatty acid receptor 1 (O14842 whole entry): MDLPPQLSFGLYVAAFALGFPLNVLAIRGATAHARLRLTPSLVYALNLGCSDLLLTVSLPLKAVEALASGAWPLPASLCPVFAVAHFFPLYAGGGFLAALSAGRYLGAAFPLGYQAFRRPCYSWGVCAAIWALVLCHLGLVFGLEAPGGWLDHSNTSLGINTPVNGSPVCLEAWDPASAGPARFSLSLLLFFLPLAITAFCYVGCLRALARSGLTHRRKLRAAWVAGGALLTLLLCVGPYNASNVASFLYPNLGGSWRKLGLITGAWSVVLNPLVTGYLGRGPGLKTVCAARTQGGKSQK

CO[C@H]1C[C@H](Oc2cc(F)c(F)c(-c3ccc4c(c3)CC[C@H](CCC(=O)O)O4)n2)C1
EC50 [1]: 24 nM
EC50 [2]: > 10000 nM
half-life [3]: 2.1 h
fraction unbound [4]: 0.0024
CL [5]: 560 mL/min/kg
Activity [6]: Active
Activity [7]: Active
concentration at 3 h [8]: 53.4 µM
EC50 [9]: 6.4 nM
EC50 [10]: 6.8 nM
IC50 [11]: > 50000 nM
Activity [12]: > 10 µM
AUC [13]: 35.9 µM·h
Vd [14]: 0.3 L/kg
half-life [15]: 4.6 h
MRT [16]: 4.6 h
bioavailability [17]: 93%
fraction unbound [18]: 0.0024
AUC [19]: 8.1 µM·h
clearance [20]: 9.9 mL/min/kg
half-life [21]: 3 h
fraction unbound [22]: 0.0033
CL [23]: 3400 mL/min/kg
AUC [24]: 57.8 µM·h
half-life [25]: 9.8 h
bioavailability [26]: 82%
fraction unbound [27]: 0.0022
